Source: patent EP4455159A1, “GASTRIC INHIBITORY PEPTIDE RECEPTOR LIGANDS WITH BIO-DISTRIBUTION MODIFIER” (3B Pharmaceuticals GmbH, priority 2023, dated 2024)
Starred links: 1 amine or outer side, 2 acyl side, 3 side chain; linkers in the order of their positions; H or OH if unused. Positions of bridges follow the written chain, without caps; N, C: chain ends. Residues, ends and D or L forms follow the SMILES beside them. *: point of attachment. X1 = NC(=O)[C@H](CCCCNC(=O)CCCC[C@@H]1SC[C@@H]2NC(=O)N[C@@H]21)NC(=O)CCC(=O)NCCCOCCOCCOCCCN*; mXylylene = c1cc(C[*:1])cc(C[*:2])c1

Molecular target: T1, GIPR (Homo sapiens, UniProt P48546)
T1 construct: host or cells: CHO-K1
T1 sequence (P48546 22-466): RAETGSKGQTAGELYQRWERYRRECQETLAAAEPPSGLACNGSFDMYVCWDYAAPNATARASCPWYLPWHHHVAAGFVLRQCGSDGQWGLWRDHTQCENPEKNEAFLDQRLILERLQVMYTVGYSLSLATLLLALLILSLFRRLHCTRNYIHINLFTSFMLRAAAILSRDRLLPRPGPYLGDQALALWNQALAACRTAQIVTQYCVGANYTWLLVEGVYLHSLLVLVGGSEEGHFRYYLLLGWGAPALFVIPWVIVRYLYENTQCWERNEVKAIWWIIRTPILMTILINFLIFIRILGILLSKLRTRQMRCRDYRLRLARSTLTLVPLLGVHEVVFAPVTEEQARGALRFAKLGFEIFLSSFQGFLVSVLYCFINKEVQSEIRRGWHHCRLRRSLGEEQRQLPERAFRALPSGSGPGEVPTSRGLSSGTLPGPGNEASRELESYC
Test: FACS binding assay
Conditions: CHO-K1-hGIPR cells, various concentrations of biotinylated compound, 4°C for 1 hour, APC-Streptavidin detection
Procedure: In order to determine binding of compounds according to the present invention to GIPR-expressing cells, a FACS binding assay is established.
CHO-K1-hGIPR cells (GenScript Biotech, #M00486) are cultured in Ham's F12 medium (Sigma-Aldrich, #N4888) including 10% fetal calf serum (FCS), 2 mM L-glutamine, 100 U/mL penicillin, 100 µg/mL streptomycin, 200µg/mL Zeocin and 100µg/mL HygromycinB. Cells are detached with Accutase (Biolegend, #BLD-423201) and washed in FACS buffer (PBS including 1% FCS). Cells are diluted in FACS buffer to a final concentration of 500.000 cells per mL. 200 µL of the cell suspension is transferred to a u-shaped non-binding 96-well plate (Greiner) and cells are washed in ice-cold FACS buffer.
For EC50 determination, cells are incubated with various concentrations of biotinylated compound (H-Met-Tyr-Asp-Trp-Trp-Pro-Glu-Leu-[Cys(3MeBn)-Ala-Leu-Ile-Cys]-Ttds-Lys(Bio)-NH2) (SEQ ID NO: 3) at 4°C for 1 hour. […] For IC50 determination, cells are incubated with 20 nM of the biotinylated compound in the presence of increasing concentrations of non-labeled test compounds at 4°C for 1 hour. Cells are washed twice in FACS buffer. […]
Cells are analyzed in an Attune NxT flow cytometer. Median fluorescence intensities (MFI) of the APC/Cy5-channel are calculated by Attune NxT software. […]

EC50: 3.16 nM
Structure (SMILES): CC[C@H](C)[C@@H]1NC(=O)[C@H](CC(C)C)NC(=O)[C@H](C)NC(=O)[C@@H](NC(=O)[C@H](CC(C)C)NC(=O)[C@H](CCC(=O)O)NC(=O)[C@@H]2CCCN2C(=O)[C@H](Cc2c[nH]c3ccccc23)NC(=O)[C@H](Cc2c[nH]c3ccccc23)NC(=O)[C@H](CC(=O)O)NC(=O)[C@H](Cc2ccc(O)cc2)NC(=O)[C@@H](N)CCSC)CSCc2cccc(c2)CSC[C@@H](C(=O)NCCCOCCOCCOCCCNC(=O)CCC(=O)N[C@@H](CCCCNC(=O)CCCC[C@@H]2SC[C@@H]3NC(=O)N[C@@H]32)C(N)=O)NC1=O [biotinylated compound, H-Met-Tyr-Asp-Trp-Trp-Pro-Glu-Leu-[Cys(3MeBn)-Ala-Leu-Ile-Cys]-Ttds-Lys(Bio)-NH2] (H-MYDWWPELCALIC-X1; linker 9-13 via mXylylene)
